# Results: patent EP0975351B1, “TREATMENT OF MULTIPLE SCLEROSIS THROUGH INGESTION OF COPOLYMER-1” (YEDA RESEARCH AND DEVELOPMENT CO. LTD., priority 1997, dated 1998)
# How the values were obtained:
# EAE [1] = assay: Suppression of EAE in rats by oral administration; assay type: in vivo, Lewis rats
# Description: (§1) Rats were immunized with 25 µg of GPBP emulsified 1:1 in CFA containing 4 mg/ml. H37Ra. The emulsion at a total volume of 0.1 ml. was injected into the two hindfoot pads.
# (§2) Animals were examined daily from day 10 post induction for signs of disease. EAE was scored as follows: 0-no disease, 1-limp tail, 2-hind limb paralysis, 3-paralysis of all four limbs, 4-moribund condition, 5-death.
# (§3) Rats were fed with 1 mg GPBP or glatiramer acetate dissolved in PBS by gastric intubation using a sterile feeding tube (Uno Plast, Denmark). Rats were fed 5 times (total dose of 5 mg) before disease induction at intervals of 2-3 days. EAE was induced two days after the last feeding. Control mice and rats were mock fed with PBS.
# [2] = tested on: rat spleen cell suspension stimulated with GPBP; assay: Proliferation assay of spleen cells in response to GPBP, fed rats; assay type: cell-based; conditions: spleen cells of orally fed rats, 10-11 days after EAE induction (Figure 1)
# Description: as §1, §3
# Proliferation Assay - The proliferation response of spleen cells was tested 10-11 days after EAE induction as described above. Cells from 3 animals in each group were pooled and cultured in triplicate (5x10^5 mouse cells and 2x10^5 rat cells) in microtiter plates with various antigen concentrations (GPBP) in a final volume of 0.2ml. Microtiter plates contained RPMI 1640 (available from Sigma Biochemicals, St. Louis, Missouri) culture medium supplemented with 1% autologous serum. After 72 hr. of incubation, cells were pulsed with 1 µCi {^3H}-thymidine for 18 hr and then harvested onto filter papers and radioactivity was counted.
# [3] = tested on: spleen cell cultures derived from mice; assay: Cytokine secretion assay of spleen cells from fed mice (ELISA); assay type: cell-based; conditions: versus PBS fed control
# Description: Induction and Assessment of EAE - Mice were injected with 200 µg GPBP emulsified in an equal volume of complete Freund's adjuvant (CFA) containing 4 mg/ml mycobacterium tuberculosis (H37Ra) (Difco Lab, Detroit, Mich.). The emulsion at a total volume of 0.1 ml was injected into all four footpads. Immediately after and 24 hours later, pertussis toxin (250ng/mouse) (Sigma) was injected intravenously.
# Induction of Oral Tolerance - Mice were fed with 250 µg GPBP or glatiramer acetate dissolved in phosphate buffered saline (PBS) on days -7, -5, -3, 0, 2, 4 and 6 by gastric intubation with an 18-gauge stainless steel feeding needle (Thomas). EAE was induced on day 0.
# Cytokine Secretion Assay - Spleens were removed 10-11 days after EAE induction and cells of 3 mice from each group were pooled. Cells (5x10^6/ml) were cultured in duplicates in 24 well plate in RPMI 1640 supplemented with 10% FCS (Fetal Calf Serum) in the presence or absence of antigen (GPBP 100 Fg/ml). Supematants were harvested after 24-40 hr of culture. Quantitative ELISA for IL-2, IFN-γ, IL-4, IL-6 and IL-10 were performed using paired mAbs specific for the corresponding cytokines (Pharmingen, La Jolla, CA) according to the manufacturer's instructions.
# EAE [4] = assay: Dose response study of oral Copolymer-1 in rats (EAE); assay type: in vivo; conditions: for Mean Score ±SD: PBS control 1.32±0.64; for Incidence: PBS control 10/11; for Mean Onset: PBS control 13.1; for Suppression* (%): calculated by mean score
# Description: as §1, §2, §3
# Rats were fed 5 times with 0.5, 1 or 2 mg glatiramer acetate according to the established protocol (see Materials and Methods, above) and then challenged for EAE induction.
# CSF WBCs = assay: Flow cytometry of cerebral spinal fluid (CSF) cells; assay type: in vivo, Rhesus Monkeys
# Description: 3 Rhesus monkeys were treated as follows: One monkey served as control and was fed with placebo capsules (containing 5mg glucose only). The second and third monkeys were fed with glatiramer acetate containing capsules at a dose of 1mg/feeding and 20mg/feeding, respectively. Animals were fed every other day for a total of 10 feedings: 5 times prior to disease induction (immunization on day 0) and then 5 times after immunization.
# Disease was induced on day 0 by an intradermal injection of 8mg bovine - MBP and 3 mg H37Ra M. tuberculosis in FCA into the hind footpads, total injected volume between 0.1 and 0.15 ml per footpad. The animals were followed for clinical manifestations of EAE, a variety of serum and CSF immunological markers and spinal cord and cranial MRI's.
# The Epics C flow cytometer was used to analyze both peripheral blood lymphocytes (PBL) and cerebral spinal fluid (CSF) collected from each monkey. The red blood cells were lysed and the remaining white blood cells (WBCs) were washed and stained using standard methods with appropriate reagents. Tables 3 and 4 below show the data from staining PBL and CSF WBCs from the three animals in this Example.
# TGF-beta = assay: Reaction of MBP-bound plasma material with anti-TGF-beta antibody; assay type: in vivo, Rhesus Monkeys; conditions: plasma material bound to MBP
# Description: Recombinant human TGF-beta reacted with the anti-TGF-beta, but not 3C9 antibody. Table 5: Assay for MBP-specific T suppressor Inducer factora
# EAE [5] = assay: EAE in Rhesus monkeys, enteric-coated versus cracked coating capsules (Example 4); assay type: in vivo; conditions: for protection from the disease: Fig. 10
# Description: Six monkeys were treated and subsequent analyses performed substantially according to the protocol described for Example 3 hereinabove.
# Control placebo-fed animal 18746 was fed with capsules containing glucose. Animal 18586 was fed with 1 mg glatiramer acetate in capsules with cracked […]. Animal 18586 was fed with 1 mg glatiramer acetate in capsules with cracked enteric coating. Animal 18639 was fed with 20 mg glatiramer acetate in capsules with cracked enteric coating. […] Animal 18962 was fed with 20 mg glatiramer acetate in intact enteric coated capsules.
# The schedule of feeding, disease induction and follow-up were substantially the same as those of Example 3 described hereinabove.
# [6] = animal 18498, 20mg/feeding, day +27
# [7] = capsules with cracked enteric coating, 1 mg (animal 18586) and 20 mg (animal 18639)
substance,measurement,setting,value
glatiramer acetate,Mean Onset,"EAE [1]; Lewis rats fed 1 mg 5 times before EAE induction, PBS control 11.9",12.6 days
same,Mean Maximal Score±SD,"EAE [1]; Lewis rats fed 1 mg 5 times before EAE induction, score 0-5, PBS control 1.8±0.5",0.78±0.45
same,inhibition of incidence of EAE,EAE [1]; compared to PBS fed rats,54%
same,inhibition of severity of EAE,EAE [1]; compared to PBS fed rats,57%
same,proliferative responses to GPBP,[2],almost complete inhibition
same,IFN-γ produced in response to GPBP stimulation,[3],lower than in control groups
same,IL-2 produced in response to GPBP stimulation,[3],lower than in control groups
same,Mean Score ±SD,EAE [4]; rats fed 5 times 0.5 mg,0.95±0.57
same,Incidence,EAE [4]; rats fed 5 times 0.5 mg,9/11
same,Mean Onset,EAE [4]; rats fed 5 times 0.5 mg,13.5
same,Suppression* (%),EAE [4]; rats fed 5 times 0.5 mg,28%
same,Mean Score ±SD,EAE [4]; rats fed 5 times 1 mg,0.64±0.50
same,Incidence,EAE [4]; rats fed 5 times 1 mg,7/11
same,Mean Onset,EAE [4]; rats fed 5 times 1 mg,15.1
same,Suppression* (%),EAE [4]; rats fed 5 times 1 mg,51%
same,Mean Score ±SD,EAE [4]; rats fed 5 times 2 mg,0.91±0.70
same,Incidence,EAE [4]; rats fed 5 times 2 mg,8/11
same,Mean Onset,EAE [4]; rats fed 5 times 2 mg,13.1
same,Suppression* (%),EAE [4]; rats fed 5 times 2 mg,31%
same,Cells µl,"CSF WBCs; animal 18497, 1mg/feeding, day 0",few cells
same,Cells µl,"CSF WBCs; animal 18498, 20mg/feeding, day 0",too few cells
same,CD4+,CSF WBCs; [6],47
same,CD4+ CD45RA+,CSF WBCs; [6],8
same,Cells µl,CSF WBCs; [6],29.7
same,Cells µl,"CSF WBCs; animal 18498, 20mg/feeding, day +34",too few cells
same,anti-TGF-beta,"TGF-beta; animal 18497, 1mg/feeding then 20mg capsules after day 33, day +41",0.85 OD405nm
same,anti-TGF-beta,"TGF-beta; animal 18497, 1mg/feeding, day +6",none
same,anti-TGF-beta,"TGF-beta; animal 18497, 1mg/feeding, day +13",0.71 OD405nm
same,anti-TGF-beta,"TGF-beta; animal 18497, 1mg/feeding, day +27",0.65 OD405nm
same,anti-TGF-beta,"TGF-beta; animal 18498, 20mg/feeding, day +6",none
same,anti-TGF-beta,"TGF-beta; animal 18498, 20mg/feeding, day +13",0.35 OD405nm
same,anti-TGF-beta,TGF-beta; [6],0.47 OD405nm
same,anti-TGF-beta,"TGF-beta; animal 18498, 20mg/feeding, day +41",0.45 OD405nm
same,time to death from disease manifestations,EAE [5]; [7],2 to 3 days
same,protection from the disease,EAE [5]; [7],not protected from the disease
same,protection from the disease,"EAE [5]; intact enteric coated capsules, 1 mg, 10 mg, 20 mg (animals 18724, 18810, 18962)",fully protected from the disease
same,signs of EAE,"EAE [5]; intact enteric coated capsules, 1 mg, 10 mg, 20 mg, until day 60 when sacrificed",developed no signs of EAE until day 60
